Laboratory results published in patent US7098340B2, “Benzyl sulfonamide derivatives” (Warner Lambert Company LLC, priority 2003, dated 2006).

Each molecule was assayed against T1, androgen receptor (Homo sapiens, UniProt P10275) (assay: AR Antagonist Cell Assay (MMTV-luciferase reporter, DHT-stimulated)). Conditions: MDA-MB453-MMTV clone 54-19 cells; antagonism of 100 pM DHT, 17 hr, luciferase readout.
T1 sequence (P10275 1-920 Q868H): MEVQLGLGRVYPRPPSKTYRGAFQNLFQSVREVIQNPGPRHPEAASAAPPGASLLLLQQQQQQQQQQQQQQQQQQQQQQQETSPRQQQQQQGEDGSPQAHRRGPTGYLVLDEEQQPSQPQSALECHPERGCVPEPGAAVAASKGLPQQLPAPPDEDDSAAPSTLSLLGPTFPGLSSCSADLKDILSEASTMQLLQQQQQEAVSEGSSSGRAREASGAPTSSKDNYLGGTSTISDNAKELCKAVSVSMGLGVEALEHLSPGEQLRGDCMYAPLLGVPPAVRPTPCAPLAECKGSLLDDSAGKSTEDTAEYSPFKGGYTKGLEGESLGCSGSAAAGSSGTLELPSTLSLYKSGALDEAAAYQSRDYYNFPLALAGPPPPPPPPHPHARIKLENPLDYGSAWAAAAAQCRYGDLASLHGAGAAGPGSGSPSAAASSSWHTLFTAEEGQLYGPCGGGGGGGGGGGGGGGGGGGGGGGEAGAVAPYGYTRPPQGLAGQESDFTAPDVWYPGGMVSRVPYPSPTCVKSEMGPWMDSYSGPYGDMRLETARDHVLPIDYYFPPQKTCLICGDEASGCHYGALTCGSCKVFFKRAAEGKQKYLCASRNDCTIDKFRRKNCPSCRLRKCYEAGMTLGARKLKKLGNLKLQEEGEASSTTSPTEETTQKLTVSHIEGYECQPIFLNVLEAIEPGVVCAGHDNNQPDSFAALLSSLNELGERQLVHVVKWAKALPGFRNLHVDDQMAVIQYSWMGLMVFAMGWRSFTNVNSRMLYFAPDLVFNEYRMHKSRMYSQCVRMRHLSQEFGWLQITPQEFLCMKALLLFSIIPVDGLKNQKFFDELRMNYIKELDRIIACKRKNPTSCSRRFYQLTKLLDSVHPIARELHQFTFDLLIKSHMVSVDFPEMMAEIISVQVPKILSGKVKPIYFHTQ
Type: cell-based
How it was run: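 MDA-MB453 cells stably carrying MMTV-ARE-firefly luciferase, in 1% charcoal-treated serum, preincubated 30 min with compound (10 uM or 1 uM) then stimulated with 100 pM DHT for 17 h at 37° C. Luminescence read; result as % inhibition of DHT fold induction.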

Compound | IC50 [µM]
O=c1cc(C(F)(F)F)c2cc(Cc3ccc(S(=O)(=O)N(CCO)C4CCCCC4)cc3)ccc2o1 [Example 95, N-Cyclohexyl-N-(2-hydroxyethyl)-4-(2-oxo-4-trifluoromethyl-2H-chromen-6-ylmethyl)benzenesulfonamide] | 1.03
O=c1cc(C(F)(F)F)c2cc(Cc3ccc(S(=O)(=O)NCCC4=CCCCC4)cc3)ccc2o1 [Example 175, N-(2-Cyclohex-1-enylethyl)-4-(2-oxo-4-trifluoromethyl-2H-chromen-6-ylmethyl)benzenesulfonamide] | 8.5
O=c1cc(C(F)(F)F)c2cc(Cc3ccc(S(=O)(=O)Nc4cccc(CO)c4)cc3)ccc2o1 [Example 122, N-(3-Hydroxymethylphenyl)-4-(2-oxo-4-trifluoromethyl-2H-chromen-6-ylmethyl)-benzenesulfonamide] | 1.83
O=c1cc(C(F)(F)F)c2cc(Cc3ccc(S(=O)(=O)Nc4cccc(OC(F)F)c4)cc3)ccc2[nH]1 [Example 36, N-(3-Difluoromethoxyphenyl)-4-(2-oxo-4-trifluoromethyl-1,2-dihydroquinolin-6-ylmethyl)-benzenesulfonamide] | 6.14
N#CCc1ccc(NS(=O)(=O)c2ccc(Cc3ccc4oc(=O)cc(C(F)(F)F)c4c3)cc2)cc1 [Example 126, N-(4-Cyanomethylphenyl)-4-(2-oxo-4-trifluoromethyl-2H-chromen-6-ylmethyl)-benzenesulfonamide] | 1.89
O=c1cc(C(F)(F)F)c2cc(Cc3ccc(S(=O)(=O)N(Cc4ccccc4)Cc4ccccc4)cc3)ccc2o1 [Example 109, N,N-Dibenzyl-4-(2-oxo-4-trifluoromethyl-2H-chromen-6-ylmethyl)benzenesulfonamide] | 8.26
CCCN(CC1CC1)S(=O)(=O)c1ccc(Cc2ccc3oc(=O)cc(C(F)(F)F)c3c2)cc1 [Example 104, N-Cyclopropylmethyl-4-(2-oxo-4-trifluoromethyl-2H-chromen-6-ylmethyl)-N-propylbenzenesulfonamide] | 1.79
COc1ccc(N(Cc2ccccc2)S(=O)(=O)c2ccc(Cc3ccc4[nH]c(=O)cc(C(F)(F)F)c4c3)cc2)cc1 [Example 45, N-Benzyl-N-(4-methoxyphenyl)-4-(2-oxo-4-trifluoromethyl-1,2-dihydroquinolin-6-ylmethyl)-benzenesulfonamide] | > 10
COc1ccc(OC)c(NS(=O)(=O)c2ccc(Cc3ccc4oc(=O)cc(C(F)(F)F)c4c3)cc2)c1 [Example 140, N-(2,5-Dimethoxyphenyl)-4-(2-oxo-4-trifluoromethyl-2H-chromen-6-ylmethyl)-benzenesulfonamide] | 7.3
O=c1cc(C(F)(F)F)c2cc(Cc3ccc(S(=O)(=O)NCc4cccc(Cl)c4)cc3)ccc2o1 [Example 186, N-(3-Chlorobenzyl)-4-(2-oxo-4-trifluoromethyl-2H-chromen-6-ylmethyl)benzenesulfonamide] | > 10
CSc1cccc(NS(=O)(=O)c2ccc(Cc3ccc4oc(=O)cc(C(F)(F)F)c4c3)cc2)c1 [Example 134, N-(3-Methylsulfanylphenyl)-4-(2-oxo-4-trifluoromethyl-2H-chromen-6-ylmethyl)-benzenesulfonamide] | 1.24
COc1ccc(OC)c(NS(=O)(=O)c2ccc(Cc3ccc4[nH]c(=O)cc(C(F)(F)F)c4c3)cc2)c1 [Example 33, N-(2,5-Dimethoxyphenyl)-4-(2-oxo-4-trifluoromethyl-1,2-dihydroquinolin-6-ylmethyl)-benzenesulfonamide] | > 10
O=c1cc(C(F)(F)F)c2cc(Cc3ccc(S(=O)(=O)NCc4c(F)cccc4F)cc3)ccc2o1 [Example 188, N-(2,6-Difluorobenzyl)-4-(2-oxo-4-trifluoromethyl-2H-chromen-6-ylmethyl)benzenesulfonamide] | 1.91
O=c1cc(C(F)(F)F)c2cc(Cc3ccc(S(=O)(=O)NCCN4CCCC4)cc3)ccc2[nH]1 [Example 56, 4-(2-Oxo-4-trifluoromethyl-1,2-dihydroquinolin-6-ylmethyl)-N-(2-pyrrolidin-1-yl-ethyl)-benzenesulfonamide] | 3.64
CCOc1ccc(NS(=O)(=O)c2ccc(Cc3ccc4oc(=O)cc(C(F)(F)F)c4c3)cc2)cc1 [Example 150, N-(4-Ethoxyphenyl)-4-(2-oxo-4-trifluoromethyl-2H-chromen-6-ylmethyl)-benzenesulfonamide] | 7.2
CC(C)N(C)S(=O)(=O)c1ccc(Cc2ccc3[nH]c(=O)cc(C(F)(F)F)c3c2)cc1 [Example 7, N-Isopropyl-N-methyl-4-(2-oxo-4-trifluoromethyl-1,2-dihydroquinolin-6-ylmethyl)benzenesulfonamide] | > 10
O=C1CCCN1CCCNS(=O)(=O)c1ccc(Cc2ccc3oc(=O)cc(C(F)(F)F)c3c2)cc1 [Example 187, N-[3-(2-Oxopyrrolidin-1-yl)propyl]-4-(2-oxo-4-trifluoromethyl-2H-chromen-6-ylmethyl)benzenesulfonamide] | 3.44
CCN(Cc1ccccc1)S(=O)(=O)c1ccc(Cc2ccc3oc(=O)cc(C(F)(F)F)c3c2)cc1 [Example 110, N-Benzyl-N-ethyl-4-(2-oxo-4-trifluoromethyl-2H-chromen-6-ylmethyl)benzenesulfonamide] | 5.94
CN1CCC(N(C)S(=O)(=O)c2ccc(Cc3ccc4oc(=O)cc(C(F)(F)F)c4c3)cc2)CC1 [Example 96, N-Methyl-N-(1-methylpipendin-4-yl)-4-(2-oxo-4-trifluoromethyl-2H-chromen-6-ylmethyl)-benzenesulfonamide] | > 10
Cc1ccc(F)cc1NS(=O)(=O)c1ccc(Cc2ccc3[nH]c(=O)cc(C(F)(F)F)c3c2)cc1 [Example 25] | 1.12
O=c1cc(C(F)(F)F)c2cc(Cc3ccc(S(=O)(=O)NC4CCC(O)CC4)cc3)ccc2o1 (stereo not drawn) [Example 193, N-(4-Hydroxycyclohexyl)-4-(2-oxo-4-trifluoromethyl-2H-chromen-6-ylmethyl)benzenesulfonamide] | 9.11
O=c1cc(C(F)(F)F)c2cc(Cc3ccc(S(=O)(=O)NCCc4c[nH]c5ccccc45)cc3)ccc2[nH]1 [Example 79, N-[2-(1H-Indol-3-yl)ethyl]-4-(2-oxo-4-trifluoromethyl-1,2-dihydroquinolin-6-ylmethyl)-benzenesulfonamide] | 10.3
O=C1CCCN1CCCNS(=O)(=O)c1ccc(Cc2ccc3[nH]c(=O)cc(C(F)(F)F)c3c2)cc1 [Example 68, N-[3-(2-Oxopyrrolidin-1-yl)propyl]-4-(2-oxo-4-trifluoromethyl-1,2-dihydroquinolin-6-ylmethyl)-benzenesulfonamide] | 7.62
CN(CCc1ccccn1)S(=O)(=O)c1ccc(Cc2ccc3oc(=O)cc(C(F)(F)F)c3c2)cc1 [Example 111, N-Methyl-4-(2-oxo-4-trifluoromethyl-2H-chromen-6-ylmethyl)-N-(2-pyridin-2-ylethyl)benzenesulfonamide] | 4.78
CC(C)(C)SCCNS(=O)(=O)c1ccc(Cc2ccc3[nH]c(=O)cc(C(F)(F)F)c3c2)cc1 [Example 82, N-(2-tert-Butylsulfanylethyl)-4-(2-oxo-4-trifluoromethyl-1,2-dihydroquinolin-6-ylmethyl)-benzenesulfonamide] | > 10
CC(C)(C)c1cc(NS(=O)(=O)c2ccc(Cc3ccc4oc(=O)cc(C(F)(F)F)c4c3)cc2)cc(C(C)(C)C)c1 [Example 153, N-(3,5-Di-tert-butylphenyl)-4-(2-oxo-4-trifluoromethyl-2H-chromen-6-ylmethyl)-benzenesulfonamide] | > 10
CCN(Cc1ccncc1)S(=O)(=O)c1ccc(Cc2ccc3oc(=O)cc(C(F)(F)F)c3c2)cc1 [Example 98, N-Ethyl-4-(2-oxo-4-trifluoromethyl-2H-chromen-6-ylmethyl)-N-pyridin-4-ylmethyl-benzenesulfonamide] | 2.43
O=c1cc(C(F)(F)F)c2cc(Cc3ccc(S(=O)(=O)NCCc4ccccn4)cc3)ccc2[nH]1 [Example 59, 4-(2-Oxo-4-trifluoromethyl-1,2-dihydroquinolin-6-ylmethyl)-N-(2-pyridin-2-ylethyl)-benzenesulfonamide] | 9.25
O=c1cc(C(F)(F)F)c2cc(Cc3ccc(S(=O)(=O)NCc4ccccc4OC(F)F)cc3)ccc2o1 [Example 199, N-(2-Difluoromethoxybenzyl)-4-(2-oxo-4-trifluoromethyl-2H-chromen-6-ylmethyl)benzenesulfonamide] | 4.73
O=c1cc(C(F)(F)F)c2cc(Cc3ccc(S(=O)(=O)NCCCCc4ccccc4)cc3)ccc2[nH]1 [Example 70, 4-(2-Oxo-4-trifluoromethyl-1,2-dihydroquinolin-6-ylmethyl)-N-(4-phenylbutyl)-benzenesulfonamide] | > 10
